Here are results for 12 molecules from patent US7531573B2 (priority 1994, dated 2009).

As a reminder, the melting point is the temperature of the solid-liquid transition.

SMILES strings stand for the structures. Where two headings read alike, the source gives them in different places. A value given as a limit tells only on which side of the number the result lay.

Data set [1] concerns the target T1, red cell calcium-activated potassium transport (Homo sapiens, UniProt O15554).
T1 construct: endogenous in cells; host or cells: red cells of two normal human subjects
The data set can be described thus: Red cell Ca2+-activated 86Rb influx inhibition after oral Clotrimazole. It counts as in vivo. The following applies: for Ca2+-activated 86Rb influx inhibition %: Subject A. How it is done: Two subjects, […] (A, 72 kg) and […] (D, 56 kg), ingested one 500 mg CLT tablet every twelve hours for six days, corresponding to a daily CLT dose of 14 and 18 mg/kg, respectively.

The subject of data set [2] is NIH 3T3 mouse fibroblast cells. The data set can be described thus: Mitogen-induced cell proliferation. The class given is cell-based. The following applies: for inhibition at 10 µM: NIH3T3, read-out: Mitogen-induced cell proliferation % Inhibition; for IC50: NIH3T3, read-out: Mitogen-induced cell proliferation IC50. The text has this:
Other cell lines, e.g., cancer cells, endothelial cells and fibroblasts, as well as many others, may be used in the cell proliferation assay. Selection of a particular cell line will depend in part on the desired application, and is well within the capabilities of an ordinarily skilled artisan.

The subject of data set [3] is MM-RU human melanoma cells. The experiment in a line: SCID mice inoculated with MM-RU human melanoma cells, lung metastases. The class given is in vivo. The following applies: 120 mg/Kg subcutaneous daily for 10 weeks. The method, then:
Mice with severe combined immunodeficiency disease (SCID) were inoculated via the lateral tail vein with approximately 2.5×10^6 MM-RU human melanoma cells, a cell line that produces metastases only in the lungs (Byers et al., 1993, Melanoma Res. 3:247-253). Starting on the day of inoculation, subcutaneous injections of either vehicle (control group, n=9) or CLT (120 mg/Kg; treatment group, n=10) was administered daily for a period of 10 weeks. At the end of the 10 week treatment period, the mice were sacrificed and examined for metastases.

The target of data set [4] is T1, red cell calcium-activated potassium transport. The data set can be described thus: Red cell Ca2+-activated 86Rb influx inhibition after oral Clotrimazole. The class given is in vivo. Conditions: Subject B.
For data set [5], the target named is red cell Gardos channel (Homo sapiens, UniProt O15554). The data set can be described thus: cell-based. The method, then:
CLT and metabolite B (Compound 6) were incubated with a red cell suspension at 20% Hct.

Data set [6] deals with Gardos channel (Homo sapiens, UniProt O15554). The class given is binding.
Gardos channel, sequence (O15554 whole entry): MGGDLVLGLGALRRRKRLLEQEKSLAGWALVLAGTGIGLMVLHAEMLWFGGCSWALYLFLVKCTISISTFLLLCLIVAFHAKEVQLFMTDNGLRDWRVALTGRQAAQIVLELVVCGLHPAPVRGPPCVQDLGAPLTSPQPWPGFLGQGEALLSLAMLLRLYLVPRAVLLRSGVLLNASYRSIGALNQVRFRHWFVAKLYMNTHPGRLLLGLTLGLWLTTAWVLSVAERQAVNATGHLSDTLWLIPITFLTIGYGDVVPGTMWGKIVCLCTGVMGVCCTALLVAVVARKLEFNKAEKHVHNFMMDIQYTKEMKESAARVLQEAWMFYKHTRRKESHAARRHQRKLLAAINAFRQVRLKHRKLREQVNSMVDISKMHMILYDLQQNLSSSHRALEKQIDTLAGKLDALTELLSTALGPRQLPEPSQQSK
The target in data set [7] is Gardos channel of erythrocytes (Homo sapiens, UniProt O15554). The experiment in a line: cell-based. Conditions: for inhibition at 10 µM: read-out: Gardos Channel % Inhibition.
Gardos channel of erythrocytes, sequence (O15554 whole entry): as above
The nature of data set [8]: clinical. Conditions: human, in vivo, read-out: Levels Plasma; for concentration at 6 day of CLT dosing: CLT day 6; for concentration at 10 day (wash-out): Wash-out day 10; for concentration at 13 day (wash-out): Wash-out day 13; for concentration at 20 day (wash-out): Wash-out day 20. It counts as in vivo.
Setting [9] is: erythrocytes, read-out: Gardos Channel IC50.
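Throughout, for Levels Plasma: oral tablet given every 12 h for six days, about 14 mg/kg per day for this subject, with levels then followed in plasma.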

red cell Gardos channel, sequence (O15554 whole entry): as above
T1 sequence (O15554 whole entry): as above

`Clc1ccccc1C(c1ccccc1)(c1ccccc1)n1ccnc1` [Clotrimazole, reference compound]: the “Ca2+-activated 86Rb influx inhibition %” value in [1] (CLT day 3) is listed as 74 ± 5%; in [1] (CLT day 6), 73 ± 4%; in [1] (Wash-out day 6), 71 ± 7%; in data set [1] (Wash-out day 10) it was 75 ± 11%; in [1] (Wash-out day 13), 58 ± 9%; in [1] (Wash-out day 20) it was 0 ± 10%. The “Ca2+-activated 86Rb influx inhibition %” value was 80 ± 28% in [4] (CLT day 3); 83 ± 7% in data set [4] (CLT day 6); 79 ± 21% in data set [4] (Wash-out day 8); 82 ± 4% in data set [4] (Wash-out day 10); 37 ± 30% in data set [4] (Wash-out day 13); 0 ± 13% in [4] (Wash-out day 20). In addition, the “persistence of inhibition of calcium-activated potassium transport after the drugs were discontinued” value in data set [1] (two subjects, oral CLT for six days) is “at least 7 days”. Besides, the figures for the inhibition at 10 µM in data set [2] and in data set [5] (10 μM) were 93% and 96.3%, respectively. Besides, the “number of microscopic metastases” value in data set [3] (SCID mice) is given as 7±2. Moreover, the “number of pleural metastases” value in data set [3] (SCID mice) is given as 2±1. Besides, in data set [3] (SCID mice), the “systemic metastatic disease or toxicity” value is “did not show any evidence of systemic metastatic disease or toxicity”. For the same molecule, in data set [3] (SCID mice), the weight gain entry is recorded as “gained weight in comparable amounts”. Further, in data set [3] (n=10), the “treated animals free of macroscopic metastases” value is “half”. The “treated animals without evidence of microscopic metastases” value in data set [3] (n=10) is “two”. The “concentration at which inhibition of K+ transport reached maximal levels” value in data set [5] stood at 5 µM. Besides, the “% control” value is on record as 100.3% in data set [5] (1 nM); 97.6% in data set [5] (10 nM); 77.4% in data set [5] (100 nM); 45.0% in data set [5] (500 nM); 21.5% in data set [5] (1 μM); 3.3% in data set [5] (5 μM). Besides, in data set [5] (10 μM), the “% control” value was 3.7%. For the same molecule, the flux in data set [5] (1 nM) worked out at 1.155; in data set [5] (10 nM) it was 1.124; in data set [5] (100 nM) it was 0.892; in data set [5] (500 nM), 0.518; in data set [5] (1 μM) it was 0.248; in data set [5] (5 μM), 0.038. This molecule also had a flux in [5] (10 μM) of 0.043. The inhibition at 0.001 µM in data set [5] (1 nM) was -0.3%. The inhibition at 0.01 µM in [5] (10 nM) came out at 2.4%. Also, the inhibition at 0.1 µM in data set [5] (100 nM) turned out to be 22.6%. For the same molecule, in data set [5] (500 nM), the inhibition at 0.5 µM is above 50%. Also, the inhibition at 1 µM in data set [5] (1 μM) was 78.5%. Moreover, the inhibition at 5 µM in data set [5] (5 μM) stood at 96.7%. The “125I-ChTX Binding” value in data set [6] turned out to be 1.000. Further, in data set [6], the “Displacement (%)” value came to 41.6%.
As to `O=CC(c1ccccc1)(c1ccccc1)c1ccccc1` [Compound 16, triphenylacetaldehyde], the melting point lay in the range of 91 to 96 °C. Also, the IC50 in [7] (setting [9]) was 87 nM. Moreover, in data set [7], the inhibition at 10 µM stood at 98%. Further, in [2], the inhibition at 10 µM turned out to be 99.4% and the IC50 lay within 400 to 2000 nM.
Turning to `O=CCC(c1ccccc1)(c1ccccc1)c1ccccc1Cl` [Compound 79, 3-(2′-chlorophenyl)-3,3-diphenylpropanal], the melting point lay within 92 to 93 °C. For the same molecule, in data set [7] (setting [9]), the IC50 is 83 nM. For the same molecule, the inhibition at 10 µM in [7] came out at 96%. In data set [2], the inhibition at 10 µM came to 99% and the IC50 turned out to be 2700 nM.
On to `O=C(O)CC(c1ccccc1)(c1ccccc1)c1ccccc1Cl` [Compound 36, 3-(2-chlorophenyl)-3,3-diphenylpropionic acid], for which the melting point was 180 to 182 °C. In data set [7] (setting [9]), the IC50 worked out at 3110 nM. Moreover, the inhibition at 10 µM in data set [7] is 78.6%. In data set [2], the inhibition at 10 µM was determined as 92% and the IC50 was found to be 600 nM.
On to `Clc1ccccc1C(c1ccccc1)c1ccccc1` [Compound 17, 2-chlorophenyl-diphenylmethane], for which the melting point lay in the range of 74 to 76 °C. Also, in [7], the IC50 is 860 nM and the inhibition at 10 µM came out at 100%. For the same molecule, in [8] (500 mg, Subject A), the concentration at 6 day of CLT dosing amounted to 1800 nM, the concentration at 10 day (wash-out) was below 100 nM, the concentration at 13 day (wash-out) turned out to be 0 nM and the concentration at 20 day (wash-out) stood at 0 nM. The concentration at 6 day (wash-out) in [8] (500 mg, Subject A, Wash-out day 6) was below 100 nM. In addition, the concentration at 3 day of CLT dosing in data set [8] (500 mg, Subject B, CLT day 3) was 1650 nM. Also, in data set [8] (500 mg, Subject B), the concentration at 6 day of CLT dosing was 2500 nM, the concentration at 10 day (wash-out) is below 100 nM, the concentration at 13 day (wash-out) came to 0 nM and the concentration at 20 day (wash-out) is 0 nM. Besides, the concentration at 8 day (wash-out) in data set [8] (500 mg, Subject B, Wash-out day 8) was below 100 nM. Moreover, in data set [8] (Subject A, CLT day 3, oral CLT 500 mg every twelve hours), the concentration at 3 day of CLT dosing stood at 700 nM. In [2], the inhibition at 10 µM came to 91.8% and the IC50 amounted to 3900 nM.
`N#CC(c1ccccc1)(c1ccccc1)c1ccccc1F` [Compound 32, (2-fluorophenyl)-diphenylacetonitrile]: the melting point is 144 to 145 °C. Besides, in data set [7], the IC50 is 68 nM and the inhibition at 10 µM came out at 95.7%. Also, the inhibition at 10 µM in [2] amounted to 54%.
`NC(=O)CC(c1ccc(Cl)cc1)(c1ccc(Cl)cc1)c1ccc(Cl)cc1` [Compound 30, tris(4-chlorophenyl)propionamide] displayed a melting point of 158 to 160 °C. Also, in data set [7], the IC50 was 272 nM and the inhibition at 10 µM was determined as 97%. Besides, in [2], the inhibition at 10 µM was 99% and the IC50 came out at 900 nM.
`O=CC(c1ccccc1)(c1ccccc1)c1ccccc1Cl` [Compound 15, 2-chlorophenyl-diphenylacetaldehyde] showed a melting point of 126 to 129 °C. For the same molecule, in data set [7] (setting [9]), the IC50 is 96.8 nM. The inhibition at 10 µM in [7] worked out at 100%. Further, in [2], the inhibition at 10 µM came to 88.6% and the IC50 was determined as 2600 nM.
`NC(=O)C(c1ccccc1)(c1ccccc1)c1ccccc1Cl` [Compound 75, (2-chlorophenyl)-diphenylacetamide]: the melting point was 197 to 198.5 °C. The IC50 in data set [7] (setting [9]) was 6 nM. Besides, in [7], the inhibition at 10 µM was found to be 98%. For the same molecule, in data set [2], the inhibition at 10 µM came out at 90%.
As to `Oc1ccc(C(O)(c2ccccc2)c2ccccc2Cl)cc1` (stereo not drawn) [Compound 84, α-(2-chlorophenyl)-α-(4-hydroxyphenyl)benzyl alcohol], the melting point was in the range of 56.5 to 60 °C. Further, in data set [7], the IC50 came to 1270 nM and the inhibition at 10 µM came out at 95.3%. Besides, in data set [2], the inhibition at 10 µM is 99% and the IC50 turned out to be 1000 nM.
Regarding `OC(c1ccccc1)(c1ccccc1)C1CCCCC1` [Compound 88, cyclohexyl-diphenylmethanol], the melting point is 76 to 78 °C. In addition, the IC50 in [7] (setting [9]) is 862 nM. Also, the inhibition at 10 µM in [7] turned out to be 99%. Besides, in data set [2], the inhibition at 10 µM was determined as 94% and the IC50 worked out at 9500 nM.
`N#CC(c1ccccc1)(c1ccccc1)C1CCCCC1` [Compound 89, cyclohexyl-diphenylacetonitrile]: the melting point lay within 117.5 to 119 °C. In addition, the IC50 in data set [7] (setting [9]) was found to be 6130 nM. Also, the inhibition at 10 µM in data set [7] was determined as 70.2%. For the same molecule, in data set [2], the inhibition at 10 µM amounted to 98% and the IC50 came to 900 nM.
